Results from patent publication US10703779B2, “Oxadiazole cyclic peptides” (THE GOVERNING COUNCIL OF THE UNIVERSITY OF TORONTO, priority 2015, dated 2020).
“And” between values parts separate entries of the source, which are not always exact repeats. Equal entries are not always repeated. Where two headings read alike, the source gives them in different places.

How the values were obtained:
[1] = multicomponent bond
[2] = multicomponent bond; 18-membered ring; propionaldehyde/(N-isocyanimino)triphenylphosphorane; 25.0 °C
[3] = passive artificial membrane permeability (PAMPA) assay; format: in vitro ADME; conditions: FIG. 10, oxadiazole-containing macrocycles (entries 1-7) compared with homodetic counterparts (entries 8-12)
Text: Passive membrane permeability is an important property for the development of new therapeutics. […] Using this analysis method a −log Pe value <6.0 is indicitive of a passively membrane permeable compound, while a −log Pe>6.0 is indicative of a poorly permeable or non-permeable compound. […] (entry 12).

[4] = 15-membered ring, propionaldehyde/(N-isocyanimino)triphenylphosphorane, DCE/MeCN 1:1, 25.0 mM, 50.0 °C
[5] = 18-membered ring, propionaldehyde/(N-isocyanimino)triphenylphosphorane, DCE/MeCN 1:1, 25.0 mM, 50.0 °C
[6] = 18-membered ring, propionaldehyde/(N-isocyanimino)triphenylphosphorane, DCE/MeCN 1:1, 25.0 mM, 50.0 °C, 2 steps
[7] = 18-membered ring, propionaldehyde/(N-isocyanimino)triphenylphosphorane, DCE/MeCN 1:1, 20.0 mM, 50.0 °C
[8] = 21-membered ring, propionaldehyde/(N-isocyanimino)triphenylphosphorane, DCE/MeCN 1:1, 25.0 mM, 50.0 °C, 2 steps
[9] = 21-membered ring, propionaldehyde/(N-isocyanimino)triphenylphosphorane, DCE/MeCN 1:1, 25.0 mM, 50.0 °C
[10] = 18-membered ring, phenylacetaldehyde/(N-isocyanimino)triphenylphosphorane, DCE/MeCN 1:1, 25.0 mM, 50.0 °C, 2 steps

AGFA showed a ring closure, isolated yield ([1]; 15-membered ring) of 32% and a ring closure, isolated yield [1, 4] of 24%.
Substance ALFA has a ring closure, isolated yield [1, 4] of 20%.
Substance APLGA has a ring closure, isolated yield [1, 5] of 15%.
With APLGK the ring closure, isolated yield [1, 6] was 60%.
Substance APLGS has a ring closure, isolated yield [1, 6] of 70%.
For GPLGA, the ring closure, isolated yield ([1]; 18-membered ring) was 13% and 25% and the ring closure, isolated yield [1, 5] was 20%.
In the case of PAFA, the ring closure, isolated yield [1, 4] is reported as 23%.
PALAF showed a ring closure, isolated yield [1, 7] of 20%.
PALGF gave a ring closure, isolated yield [1, 7] of 25%.
With PASWKG the ring closure, isolated yield [1, 8] was 7%.
With PDAWG the ring closure, isolated yield [1, 6] was 22%.
With PDAWYG the ring closure, isolated yield [1, 8] was 28%.
PFDLA gave a ring closure, isolated yield [1, 6] of 45%.
For PFLDA, the ring closure, isolated yield ([1]; 18-membered ring, acetone/(N-isocyanimino)triphenylphosphorane, DCE/MeCN 1:1 + acetone 30% v/v, 25.0 mM, 50.0 °C, 2 steps) was 10%.
For PFLLF, the ring closure, isolated yield ([1]; 18-membered ring, propionaldehyde/(N-isocyanimino)triphenylphosphorane, DCE/MeCN 1:1, 16.7 mM, 50.0 °C) was 25%.
In the case of PGLAF, the ring closure, isolated yield [1, 7] is reported as 23%.
Substance PGLGF has a ring closure, conversion [2] of 100%, a ring closure, isolated yield ([1]; 18-membered ring) of 32% and a ring closure, isolated yield ([1]; 18-membered ring, phenylacetaldehyde/(N-isocyanimino)triphenylphosphorane, DCE/MeCN 1:1, 25.0 mM, 50.0 °C) of 29%. The ring closure, isolated yield ([1]; 18-membered ring, propionaldehyde/(N-isocyanimino)triphenylphosphorane, DCE/MeCN 1:1, 50.0 mM, 25.0 °C) was 68%.
For PGLGFA, the ring closure, isolated yield [1, 9] was 41%.
PGRGDWA showed a ring closure, isolated yield ([1]; 24-membered ring, propionaldehyde/(N-isocyanimino)triphenylphosphorane, DCE/MeCN 1:1, 25.0 mM, 50.0 °C, 2 steps) of 22%.
Substance PLDFA has a ring closure, isolated yield [1, 6] of 52%.
PRGDA showed a ring closure, isolated yield [1, 6] of 70%.
PSLYA showed a ring closure, isolated yield [1, 6] of 24%.
For PSLYG, the ring closure, isolated yield [1, 10] was 22%.
PSWAG showed a ring closure, isolated yield [1, 10] of 26%.
With PSarLGF the ring closure, isolated yield ([1]; 18-membered ring, α-MIDA-borylaldehyde/(N-isocyanimino)triphenylphosphorane, DCE/MeCN 1:1, 25.0 mM, 50.0 °C) was 28%.
PSarLGFA showed a ring closure, isolated yield [1, 9] of 42%.
In the case of PWASG, the ring closure, isolated yield [1, 6] is reported as 28%.
For cyclo(PFLLFA), the “passive membrane permeability (result in words)” value [3] was “single exception”.
